Test results published in US20240261274A1, “TREATMENT OF MYC-DRIVEN CANCERS WITH GSPT1 DEGRADERS” (MONTE ROSA THERAPEUTICS, INC., priority 2021, published 2024).
pEC50: −log10 of the molar value.

Tests used:
Format in all cases: cell-based
[1] = test system: Human mammary epithelial cells, or HMECs, overexpressing c-Myc in a doxycycline-inducible manner; test: Viability of HMECs with doxycycline-inducible c-Myc overexpression; settings: for induction of cell death: highest concentration tested 30 μM
Description: X-axis represents m concentration of compound 8; y-axis represents viability normalized to DMSO.

[2] = test system: cells for which cereblon was knocked out; test: Viability in cereblon knock-out cells
Description: X-axis axis represents m concentration of compound 8; y-axis represents viability normalized to DMSO.

GSPT1 = GSPT1 (Homo sapiens, UniProt P15170+Q96SW2); test: GSPT1 degradation by compound 210 in NSCLC cells; set-up: endogenous in cells
Description: GSPT1 was degraded by compound 210 after six hours of treatment in high N-Myc NCI-H1155 and ABC-1 cells with a DC50 of 3 nM and 22 nM, respectively (x-axis represents M concentration of compound 210; y-axis represents the viability in %).

Myc target genes = test: RNAseq ssGSEA of Myc target genes in NCI-H1155 and NCI-H2023; settings: high N-Myc expressing cells, 0.1 μM and 1 μM
Description: A High N-Myc expressing NSCLC cell lines ([…]) and a low N-Myc expressing NSCLC cell lines (NCI-H2023) were treated with Compound 345 in culture. Cells were treated with increasing concentrations of the compound (0.0; 0.03; 0.3; 3 μM), cells were withdrawn from the culture at time points of 0, 2, and 6 hours, lysates were prepared, SDS-PAGE and immunoblotting was performed, and transfer membranes were probed for GSPT1, N-Myc, and Tubulin as a loading control (N-Myc was not probed in the NCI-2023 experiment). […] For the same cell lines, RNAseq followed by single sample gene set enrichment analysis (ssGSEA) was performed at six hours and 24 hours after treatment with Compound 345. […]
Transcriptomics experiment in NCI-H1155 and NCI-H2023 NSCLC lines: NCI-H1155 and NCI-H2023 were typically seeded in a 6 well plate (0.5×10^6 NCI-H1155 cells/mL; 0.3×10^6 NCI-H2023 cells/mL; 2 ml/well) and incubated overnight. […] Total RNA yields and quality were measured using the DeNovix DS-11 Spectrophotometer. […] Library yields were measured using a QuBit 4 fluorometer ([…], Q33238) and sizes were measured using a Tapestation 4150 (Agilent, G2992AA) and screentape (Agilent, 5067-5562). […] The modulation of Myctarget gene expression upon treatment with MRT-2359 was analyzed in RNAseq profiles of both Myc-driven (NCI-Hi 155) and non-Mycdriven (NCI-H2023) cell lines. […]

N-Myc = N-Myc total protein levels in NSCLC lines after Compound 345 (western blot); settings: NSCLC cancer lines; N-Myc not detectable in NCI-H2023
Description: NCI-H1155 and NCI-H2023 were taken as representative of N-Myc high and low NSCLC. 12A: western blot analysis probing for GSPT1 and N-Myc following treatment with Compound 345 (as indicated). Tubulin was used as a loading control. N-Myc could not be detected by western blotting in the NCI-H2023 line. 12B: Single-sample gene set enrichment analysis (ssGSEA) results for a Myc target gene set at 6 hours (left) and 24 hours (right) after treatment. ssGSEA scores were normalized to DMSOs for each cell line and averaged for three replicates. Error bars denote+/−1 s.d. across replicates.

GSPT1, sequence (P15170 whole entry): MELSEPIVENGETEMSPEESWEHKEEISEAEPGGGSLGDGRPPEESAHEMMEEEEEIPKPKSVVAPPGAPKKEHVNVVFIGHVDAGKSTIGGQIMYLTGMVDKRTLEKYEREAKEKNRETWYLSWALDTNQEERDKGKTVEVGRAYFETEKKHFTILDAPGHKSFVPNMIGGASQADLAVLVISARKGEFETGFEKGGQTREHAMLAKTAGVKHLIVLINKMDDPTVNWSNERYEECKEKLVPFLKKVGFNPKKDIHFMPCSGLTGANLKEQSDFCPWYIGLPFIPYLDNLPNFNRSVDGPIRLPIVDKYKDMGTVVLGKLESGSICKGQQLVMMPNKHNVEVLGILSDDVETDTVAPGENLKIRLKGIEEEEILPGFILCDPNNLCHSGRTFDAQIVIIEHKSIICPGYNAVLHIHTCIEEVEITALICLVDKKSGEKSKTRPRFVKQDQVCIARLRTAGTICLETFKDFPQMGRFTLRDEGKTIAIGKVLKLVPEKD
GSPT1, sequence (Q96SW2 whole entry): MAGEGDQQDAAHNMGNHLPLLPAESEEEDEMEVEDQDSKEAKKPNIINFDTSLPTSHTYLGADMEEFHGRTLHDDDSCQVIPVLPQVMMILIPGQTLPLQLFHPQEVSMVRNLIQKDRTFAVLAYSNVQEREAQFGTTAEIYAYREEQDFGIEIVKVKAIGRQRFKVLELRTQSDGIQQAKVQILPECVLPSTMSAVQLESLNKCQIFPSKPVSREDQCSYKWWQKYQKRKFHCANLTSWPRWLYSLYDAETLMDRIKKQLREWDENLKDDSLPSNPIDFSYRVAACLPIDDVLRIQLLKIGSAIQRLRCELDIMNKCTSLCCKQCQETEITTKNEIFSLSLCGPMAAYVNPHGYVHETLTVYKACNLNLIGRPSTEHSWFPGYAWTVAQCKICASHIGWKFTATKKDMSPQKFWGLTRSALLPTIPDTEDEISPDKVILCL
GSPT1, sequence (Q16531 whole entry partner): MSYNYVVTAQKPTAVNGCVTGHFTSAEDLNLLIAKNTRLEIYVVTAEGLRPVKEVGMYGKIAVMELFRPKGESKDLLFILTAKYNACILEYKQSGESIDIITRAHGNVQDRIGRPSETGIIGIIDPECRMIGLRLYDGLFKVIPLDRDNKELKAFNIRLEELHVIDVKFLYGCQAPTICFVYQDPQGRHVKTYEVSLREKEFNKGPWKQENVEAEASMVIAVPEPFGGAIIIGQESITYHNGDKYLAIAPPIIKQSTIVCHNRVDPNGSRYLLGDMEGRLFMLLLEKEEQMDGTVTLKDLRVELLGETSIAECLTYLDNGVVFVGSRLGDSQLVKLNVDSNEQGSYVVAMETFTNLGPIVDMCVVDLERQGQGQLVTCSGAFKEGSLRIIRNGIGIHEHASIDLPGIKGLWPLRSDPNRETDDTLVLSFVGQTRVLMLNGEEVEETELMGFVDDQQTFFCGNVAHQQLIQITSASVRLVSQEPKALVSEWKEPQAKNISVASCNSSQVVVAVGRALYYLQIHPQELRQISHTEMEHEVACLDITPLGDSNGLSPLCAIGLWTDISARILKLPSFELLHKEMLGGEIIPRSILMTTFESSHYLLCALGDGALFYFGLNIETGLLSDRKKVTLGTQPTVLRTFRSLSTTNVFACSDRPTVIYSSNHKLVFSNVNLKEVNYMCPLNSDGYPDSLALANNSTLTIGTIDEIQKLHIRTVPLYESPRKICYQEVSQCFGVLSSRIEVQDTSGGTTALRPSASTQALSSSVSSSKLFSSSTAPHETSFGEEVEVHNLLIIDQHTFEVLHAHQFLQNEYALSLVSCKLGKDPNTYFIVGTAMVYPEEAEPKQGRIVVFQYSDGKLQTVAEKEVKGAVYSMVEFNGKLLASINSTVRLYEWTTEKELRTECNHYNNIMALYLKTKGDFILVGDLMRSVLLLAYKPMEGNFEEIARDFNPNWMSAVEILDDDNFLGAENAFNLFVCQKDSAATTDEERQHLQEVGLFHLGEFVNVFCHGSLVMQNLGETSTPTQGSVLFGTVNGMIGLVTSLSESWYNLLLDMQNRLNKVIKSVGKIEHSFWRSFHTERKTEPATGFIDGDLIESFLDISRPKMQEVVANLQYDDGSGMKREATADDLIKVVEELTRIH

Cc1ccc(NC(=O)NCc2ccc3c(c2)C(=O)N(C2CCC(=O)NC2=O)C3)cc1Cl (stereo not drawn) [Compound 8]
pEC50 ([1]; Homo sapiens, HMEC, presence of high c-Myc expression, read-out: EC50 of induced cell death (viability normalized to DMSO)): 6.19 | induction of cell death ([1]; absence of doxycycline-driven c-Myc expression): did not induce cell death | induction of cell death ([1]; after doxycycline was washed out to remove c-Myc expression): did not induce cell death | induction of death (viability normalized to DMSO) [2]: did not induce death

Cc1ccc(NC(=O)OCc2ccc3c(c2)C(=O)N(C2CCC(=O)NC2=O)C3)cc1Cl (stereo not drawn) [Compound 210]
relative levels of GSPT1 versus concentration (GSPT1): degrades GSPT1 in a concentration dependent manner | extent of GSPT1 degradation (GSPT1; NCI-H1155 and ABC-1 cells): complete degradation of GSPT1

O=C1CCC(N2Cc3ccc(COC(=O)Nc4cc(OC(F)(F)F)ccc4F)cc3C2=O)C(=O)N1 (stereo not drawn) [Compound 345, (2-(2,6-dioxopiperidin-3-yl)-3-oxoisoindolin-5-yl)methyl(2-fluoro-5-(trifluoromethoxy)phenyl)carbamate]
ssGSEA score, Myc gene set (Myc target genes; 24 hours): significant downregulation of the Myc gene set | ssGSEA score, Myc gene set (Myc target genes; six hours): modest down regulation of the Myc gene set | N-Myc total protein levels, timecourse (N-Myc): downregulation of N-Myc total protein levels
